# Results reported in PubChem BioAssay AID2305 (GlaxoSmithKline (GSK), 2010).
# Test system: P. falciparum 3D7 growth, pLDH absorbance
# Test: blood-stage malaria parasite growth potency – strain 3D7, dose response (AID 2305)
row,Compound,IC50
1,Cc1ccccc1CNc1ccc2nc(N)nc(N)c2c1,170 nM
2,C=CCn1c(=N)c(C(=O)NCc2ccc(F)cc2)cc2c(=O)n3cccc(C)c3nc21,1170 nM
3,CC(O)C1CCCCN1C(=O)c1cccc(-c2ccc(-c3nc4ccc(F)cc4[nH]3)cc2)c1 (stereo not drawn),740 nM
4,O=C(N[C@H]1CCN(CCc2ccc(O[C@H]3CCNC3)c(F)c2)C1)c1ccc(Cl)c(Cl)c1,1190 nM
5,CCc1ccc(-c2nc3cc(NC(=O)c4ccc([N+](=O)[O-])o4)ccc3o2)cc1,250 nM
6,CN1CCC(NCc2cccc(-c3ccc(S(=O)(=O)NCCc4ccccn4)cc3)c2)CC1,830 nM
7,Cn1cc(C2CCN(CCCCNC(=O)c3ccc(C(=O)Nc4ccc(C#N)cc4)cc3)CC2)c2ccccc21,720 nM
8,Cc1[nH]c(C)c(-c2ccc(-c3cccc(OC(F)(F)F)c3)nc2)c(=O)c1Cl,70 nM
9,CC(C)C[C@H](NC(=O)c1cc2ccccc2s1)C(=O)N[C@H]1CCN(Cc2ccc(OC[C@@H]3CCCN3C)c3ccccc23)C1,1160 nM
10,Nc1c2c(nc3ccc(NC(=O)Cc4ccccc4)cc13)CCCC2,760 nM
11,COc1ccc(CN2CCC(NCc3cccc(C(F)(F)F)c3)CC2)cc1,750 nM
12,COc1ccccc1-c1csc(C(=O)NC2CCCCN(Cc3ccc(C(C)(C)C)cc3)C2)c1 (stereo not drawn),1530 nM
13,O=C(Nc1cccc2ccccc12)N1CCC(NS(=O)(=O)c2cccc(C(F)(F)F)c2)CC1,910 nM
14,CC[C@H](C)CNC(=O)c1ccnc(-c2ccc(CNCCCc3ccccc3)cc2)c1,1230 nM
15,Cc1cc(C)cc(-n2c(C)cc(C=C3SC(=Nc4ccc(Cl)cc4)NC3=O)c2C)c1,70 nM
16,Cc1ccc(NC(=O)Nc2ccc(Cn3ncc(N4CCCNCC4)c(Cl)c3=O)cc2)cc1,920 nM
17,CC(C)c1ccc(C2CCN(CCCCNC(=O)c3ccc(NC(=O)c4ccc(C(F)(F)F)cc4)cc3)CC2)c(O)c1,580 nM
18,CCN1C(=O)N(CCC(C)C)C2(CCN(Cc3ccc(OC)cc3O)CC2)C1=O,870 nM
19,COc1ccc(CNC(=O)c2cnc3c(O)cccc3c2Nc2cccc(NC(=O)c3ccc(F)cc3)c2)cc1,1000 nM
20,COc1ccc2[nH]c3ccccc3c(=O)c2c1,1000 nM
21,COc1ccc(OC)c(-c2ccc(O)c(CNCC(C)c3ccccc3)c2)c1 (stereo not drawn),930 nM
22,Cc1cc(Nc2ccc(O)cc2)nc2cc(O)ccc12,760 nM
23,CCCNC(=O)CN1CN(c2ccccc2)C2(CCN(C(=O)c3ccc(C(C)(C)C)cc3)CC2)C1=O,470 nM
24,Cc1cc(OCCCN2CCCCC2)ccc1NC(=O)COc1ccc(Cl)cc1C(=O)c1cc(Cl)cc(C#N)c1,890 nM
25,FC(F)(F)c1cccc(CCNc2nccc(NCc3ccccc3Cl)n2)c1,1170 nM

row,Compound,IC50
1,COc1cc(CNCCCCCCNCc2cc(OC)c3ccccc3c2OC)c(OC)c2ccccc12,700 nM
2,O=S1N=C(NCCCN(Cc2cccs2)c2ccccn2)C(NCc2ccccc2)=N1 (stereo not drawn),310 nM
3,Cc1cnc2ccc(NS(=O)(=O)c3sc4ccc(Cl)cc4c3C)cc2c1N1CCNCC1,810 nM
4,O=c1c(NCCCN(Cc2ccc(F)cc2)c2ccccn2)c(NCc2cccnc2)c1=O,60 nM
5,Cc1cccc2[nH]c(-c3ccc(-c4ccc(CNCCNC(=O)c5ccnn5C)cc4)cc3)nc12,480 nM
6,Cc1[nH]c(C)c(-c2ccc(CCc3cccc(C(F)(F)F)c3)nc2)c(=O)c1Cl,100 nM
7,Cc1cc2ccc(-c3cccc(CN)c3)cc2nc1N,760 nM
8,Nc1ccc(-c2nc3ccc(Oc4ccc5nc(-c6ccc(N)cc6)[nH]c5c4)cc3[nH]2)cc1,720 nM
9,CCOc1ccccc1[C@H]1[C@H](C(=O)C(C)(C)C)N2c3ccc(Br)cc3C=CC2C12C(=O)c1ccccc1C2=O (stereo partly drawn),850 nM
10,COc1cc(C(=O)N2CCOC(CCN3CCc4c(c5ccccc5n4C)C3)(c3ccc(Cl)c(Cl)c3)C2)cc(OC)c1OC (stereo not drawn),360 nM
11,CSc1cccc(Nc2nc3ccc(S(=O)(=O)NCC(C)C)cc3n2C(C)C(C)C)c1 (stereo not drawn),820 nM
12,O=C(Nc1ccc(CCNCCCc2ccccc2)cc1)Nc1ccc(Cl)c(Cl)c1,270 nM
13,CC(C)(C)c1ccc(NC(=O)c2ccc(CN3CCCN(CC4CCCCC4)CC3)cc2)cc1,540 nM
14,CCC(C)NC(=O)Nc1ccc(-c2cccc(-c3nc4c(C)cccc4[nH]3)c2)cc1 (stereo not drawn),190 nM
15,COc1cccc2c(Oc3ccccc3C)ccnc12,1230 nM
16,Cc1cc([N+](=O)[O-])ccc1N1CCN(CCCCNC(=O)c2ccc(NC(=O)c3ccc(Cl)cc3)cc2)CC1,890 nM
17,Cc1cc(C(F)(F)F)cc(-n2ncc(-c3ccc(C(=O)NCc4ccccc4N)cc3)c2N)n1,450 nM
18,Cc1cc(NC(=O)[C@H](CC2CCCCC2)Nc2ccc(C#N)c3ccccc23)ccc1F,680 nM
19,O=C(NC1CCN(CCN2CCc3ccccc3CC2)CC1)c1ccc(-c2ccc(C(F)(F)F)cc2)cc1,930 nM
20,CN(C)CC(=O)NCC(NCCCNc1cc(=O)c2ccccc2[nH]1)c1cc(Br)cc(Br)c1 (stereo not drawn),1050 nM
21,O=c1sn(-c2csc3ccccc23)c2ccccc12,340 nM
22,Cc1cc(=O)[nH]c2cc(Nc3ccnc(Nc4cccc(C(N)=O)c4)n3)ccc12,1520 nM
23,S=C(NCCc1ccc(Cl)cc1)N1CCC(CN2CCC(c3c[nH]c4ccccc34)CC2)CC1,1000 nM
24,O=C(C=Cc1ccc(Cl)c(Cl)c1)NCCCCCN1CCC(CCCNC(=O)[C@@H]2C[C@H]2c2ccccc2)CC1,770 nM
25,FC(F)(F)c1ccc2nc(-c3cccc(-c4ccc(CNCc5cnn(-c6ccccc6)n5)cc4)c3)[nH]c2c1,1330 nM

row,Compound,IC50
1,CC(=O)N(Cc1ccc(-c2ccc(CNCCc3ccccc3)cc2)cc1)C1CCN(Cc2ccccc2)CC1,940 nM
2,O=[N+]([O-])c1ccc(Oc2ccccc2CNCC2CCN(CC3CCCCC3)CC2)cc1,900 nM
3,CNC(=O)NC1=NC(C)(C)N(OCc2ccc(Cl)c(Cl)c2)C(NC(=O)NC)=N1,600 nM
4,O=C(NC(c1ccccc1)c1ccccc1)C(c1cc2ccccc2o1)N1CCN(C(c2ccccc2)c2ccccc2)CC1 (stereo not drawn),680 nM
5,CCOc1cc(C(=O)NC2CC(C)(C)NC(C)(C)C2)ccc1-c1cc2cc(Cl)c(Cl)cc2[nH]1,770 nM
6,CC(Sc1nc(-c2ccccc2)c(-c2ccccc2)o1)C(=O)NC1CC1 (stereo not drawn),840 nM
7,c1cc(CNCC2CCCO2)cc(-c2ccc(-c3nc4ccccc4[nH]3)s2)c1 (stereo not drawn),1170 nM
8,O=C(Nc1ccc(-c2nc3ccccc3[nH]2)cc1)c1ccc(Cl)s1,590 nM
9,COc1ccccc1Oc1c(N(C)S(=O)(=O)c2ccc(C(C)C)cc2)nc(C(F)(F)F)nc1N(C)S(=O)(=O)c1ccc(C(C)C)cc1,850 nM
10,Cc1cc(=O)c2cc(Oc3cccc(OC(F)(F)F)c3)ccc2[nH]1,860 nM
11,CCOc1ccc(/C=C/C(=O)Nc2cccc3c2CCN(C)C3)cc1,1110 nM
12,Cn1nc(-c2cccc(CNCCc3cccs3)c2)c2cnc(NC3CCCC3)nc21,1890 nM
13,O=C(Nc1cccc(-c2csc(-c3nc4ccccc4[nH]3)c2)c1)c1ccncc1,260 nM
14,Cc1cccc2[nH]c(-c3cccc(-c4cccc(NC(=O)Cc5cnc[nH]5)c4)c3)nc12,670 nM
15,CC(C)c1ccc(Nc2nc(NCCc3cnc[nH]3)nc(NCc3ccccc3)n2)cc1,690 nM
16,COc1ccc(-c2cccc(NC(=O)c3ccc(Cl)cc3)c2)cc1CN1CCCC1,780 nM
17,Nc1nc(N)c2c(ccc3nn(S(=O)(=O)N4CCCC4)cc32)n1,100 nM
18,CC(C)(C)c1cc(Cn2ccnc2)cc(C(C)(C)C)c1O,1040 nM
19,CN1CCC(NCc2cccc(-c3ccc(S(=O)(=O)NCc4ccccc4)cc3)c2)CC1,690 nM
20,CC(CN1CCN(C)CC1)C(=O)Nc1ccc(-c2cccc(-c3nc4ccc(C(F)(F)F)cc4[nH]3)c2)cc1 (stereo not drawn),400 nM
21,CCOC(=O)N1CCN(C(=O)Nc2ccc(Cl)cc2)CC1,1520 nM
22,C#CCN1CCC2=C(C1)c1c(O)cc(C(C)CCCc3ccc(F)cc3)cc1OC2(C)C (stereo not drawn),730 nM
23,COc1ccc(-c2ccc(CNC3Cc4ccccc4C3)cc2)cc1S(=O)(=O)NCCN1CCCC1,800 nM
24,COc1ccc(-n2nc(C)c3c2NC(=O)CC3c2ccccc2OCc2ccc(F)cc2)cc1 (stereo not drawn),850 nM
25,Nc1c2ccccc2nc2ccc(-c3ccccc3)cc12,140 nM

row,Compound,IC50
1,O=C1CCCN1CCCNCc1ccc(-c2ccc(-c3nc4ccc(C(F)(F)F)cc4[nH]3)cc2)cc1,580 nM
2,CC(=O)Nc1ncc(C(=O)Nc2cccc(-c3ccc(-c4nc5c(C)cccc5[nH]4)cc3)c2)s1,640 nM
3,CCC(C)OC(=O)C1=C(C)NC2=C(C(=O)CC(c3ccc(OC)c(OC)c3)C2)C1c1ccc(C)o1 (stereo not drawn),900 nM
4,Cc1cccc2[nH]c(-c3cccc(-c4ccc(CNCc5cnn(-c6ccccc6)n5)cc4)c3)nc12,920 nM
5,O=C(Nc1ccc(Cl)c(Cl)c1)Nc1ccc(F)c([N+](=O)[O-])c1,700 nM
6,Cc1cccc2[nH]c(-c3ccc(-c4cccc(CNCCN(C)C)c4)cc3)nc12,680 nM
7,O=C(NCCCNc1ccnc2cc(Cl)ccc12)c1ccccc1F,320 nM
8,COc1ccc(NC(=O)Nc2ccc(-c3ccncc3)c(Cl)c2)cc1N1CCN(C)CC1,760 nM
9,Cc1nc(-c2nc(N3CCC(O)CC3)ncc2-c2ccsc2)sc1C,940 nM
10,NCc1ccc(-c2ccc3c(N)nccc3c2)cc1,890 nM
11,O=C(/C=C/c1ccc(Cl)c(Cl)c1)NCCCCCN1CCC(NC(=O)Nc2ccc(OC(F)F)cc2)CC1,750 nM
12,Cc1c(CNCCCNc2cc(=O)c3ccccc3[nH]2)sc(C(F)=C(F)F)c1Br,840 nM
13,CC(C)c1ccc(NC(=O)NC2CCN(CCCCCN(C)C(=O)/C=C/c3ccc(Cl)c(Cl)c3)C2)cc1 (stereo not drawn),830 nM
14,COc1ccccc1C1CCN(C2CCC(NC(=O)/C=C/c3ccc(OC(F)(F)F)cc3)CC2)CC1 (stereo not drawn),1350 nM
15,c1ccc2[nH]c(-c3ccc(-c4ccc(CN5CCN(CCN6CCOCC6)CC5)cc4)s3)nc2c1,280 nM
16,COc1cccc(OC2CCN(C(=O)c3cc(C(C)(C)C)nn3Cc3ccccc3)CC2)c1,250 nM
17,COc1cc(Cl)c(C)cc1-n1cc(C(=O)c2cc(Br)ccc2O)cc(C#N)c1=O,870 nM
18,CNc1ccc(CNCc2ccc(-c3ccc(-c4nc5ccc(C(F)(F)F)cc5[nH]4)s3)cc2)cc1,180 nM
19,COc1ccc(NC(=O)[C@H](Cc2ccccc2)Nc2nc(NCCN3CCCC3)ncc2C)cc1,990 nM
20,O=C(NCC1Cc2cc(Oc3ccccc3)ccc2O1)c1ccc([N+](=O)[O-])o1 (stereo not drawn),920 nM
21,CN(C)CCNCc1ccc(-c2cccc(-c3nc4ccccc4[nH]3)c2)cc1,720 nM
22,O=C(/C=C/c1ccc(Cl)c(Cl)c1)NCCCCCN1CCCN(C(=O)Nc2ccc(Cl)cc2)CC1,740 nM
23,CCC(CC)NCc1c(O)ccc2c(CNC(CC)CC)c(O)ccc12,390 nM
